Data as given in patent publication EP1412028B1, “TETRAHYDROINDOLONE DERIVATIVES LINKED TO ARYLPIPERAZINES” (Spectrum Pharmaceuticals, Inc., priority 2001, dated 2003).
Where two headings read alike, the source gives them in different places.

How the values were obtained:
mice = assay: Conditioned avoidance responding (CAR, active avoidance); type: in vivo; conditions: for ED50: Mus musculus
Experimental: Training: Consists of 20 trials with variable inter-trial intervals (Trained to 80% Avoidance Criteria). After a one-minute acclimation period, the house light and an acoustic 90dB tone (conditioned stimuli) are presented. A response (crossing to dark compartment) within 5 seconds ends the trial and trial is recorded as avoidance response (CAR). […] To avoid shock, animals learn to move from the lighted side of the chamber to the dark side when the cue is presented (avoidance) or moved when the shock is administered (escape).Testing: Vehicle or test compounds are administered S.C. 20 minutes before the test session. (Checking for disruption of cognition and attention) Table 3. Conditioned Avoidance Responding

male C-57 mice = assay: PCP disruption of pre-pulse inhibition (PPI) of the acoustic startle response; type: in vivo; conditions: for ED50: Mus musculus; for PCP Disruption of Pre-pulse Inhibition, reversal: mice, PCP 5mg/kg IP, route not given, NEO compounds as oxalate
Experimental: The non-competitive NMDA receptor antagonist phencyclidine (PCP) reduces pre-pulse inhibition (PPI) of the acoustic startle response in rodents. […] For testing of PPI, male C-57 mice were assigned to five dose groups of eight animals per group, and vehicle or test compound were administered orally (PO) or subcutaneously (SC) 20 minutes prior to intraperitoneal (IP) administration of vehicle or PCP (5mg/kg). Ten minutes following PCP administration, the mice were placed into Hamilton-Kinder startle chambers and evaluation of pre-pulse inhibition procedure was performed. Following a five-minute acclimatization period with background white noise (65db), mice were exposed to five different trial types. Trials were presented […] in a quasi-random order, with randomized 5 to 25 second inter-trial intervals. Trials were: stimulus only trial (120db white noise, 50ms stimulus); two different prepulse+pulse trials in which a 20ms 5db; or 10db stimuli above a 65db background preceded the 120db pulse by 120ms; a 10dbprepulse without a 120db pulse; and a no stimulus trial, in which only the background noise was presented. Table 2 PCP Pre-pulse Inhibition

Caco-2 cells [1] = assay: Membrane permeability (Papp) across Caco-2 cell monolayers; conditions: for RATIO Papp^B-A/ Papp^A-B / Papp AP- to- BL / Papp BL- to- AP: Caco-2 monolayer; for Papp AP- to- BL: apical to basolateral direction; for Papp BL- to- AP: basolateral to apical direction
Experimental: (§1) Caco-2 cells were used to evaluate the membrane permeability of eight embodiments of the present invention. Monolayers were grown to confluence and the integrity checked by transepithelial electrical resistance (TEER) and permeability of Lucifer Yellow. The expression of P-glycoprotein was confirmed by measuring the permeability of digoxin alone and in the presence of verapamil. Permeability measurements were taken for each compound in the apical to basolateral (AP-BL) direction, and the basolateral to apical (BL-AP) direction.

Caco-2 cells [2] = system: Caco-2 cells
Experimental: as §1

[3] = sc, read-out: Conditioned Avoidance Responding, Latency ED50
[4] = sc, read-out: Conditioned Avoidance Responding, avoidance ED50
[5] = sc, read-out: PCP Disruption of Pre-pulse Inhibition - SC, 5pp ED50
[6] = sc, read-out: PCP Disruption of Pre-pulse Inhibition - SC, 10pp ED50
[7] = mice, SC 20 minutes before the test session
[8] = mice, SC 20 minutes before the test session, read-out: Conditioned Avoidance Responding, Latency ED50
[9] = read-out: PCP Disruption of Pre-pulse Inhibition, 10pp ED50
[10] = mice, SC 20 minutes before the test session, read-out: Conditioned Avoidance Responding, avoidance ED50

| Structure (SMILES) | ED50 (mice; [3]) | ED50 (mice; [4]) | ED50 (male C-57 mice; [5]) | ED50 (male C-57 mice; [6]) | EFFLUX LIMITED (Caco-2 cells [1]; Caco-2, Yes/No judgement) | RATIO Papp^B-A/ Papp^A-B (Caco-2 cells [1]) | Papp AP- to- BL (Caco-2 cells [1]) | Papp BL- to- AP (Caco-2 cells [1]) | Conditioned Avoidance Responding, overall effect (mice; [7]) | PCP Disruption of Pre-pulse Inhibition, reversal (male C-57 mice) | EFFLUX LIMITED (Caco-2 cells [2]) | PERMEABILITY (Caco-2 cells [2]) | ED50 (mice; [8]) | Conditioned Avoidance Responding, effect on escape or avoidance (mice; [7]) | Conditioned Avoidance Responding, effect on latency (mice; [7]) | ED50 (male C-57 mice; [9]) | ED50 (mice; [10]) | Conditioned Avoidance Responding, effect on avoidance (mice; [7]) | ED50 (male C-57 mice; read-out: PCP Disruption of Pre-pulse Inhibition, 5pp ED50) | Papp AP- to- BL (Caco-2 cells [2]; human) |
| --- | --- | --- | --- | --- | --- | --- | --- | --- | --- | --- | --- | --- | --- | --- | --- | --- | --- | --- | --- | --- |
| CN1CCN(C2=Nc3cc(Cl)ccc3Nc3ccccc32)CC1 [Clozapine, clozapine, reference compound] | 3.03 mg/kg | 6.3 mg/kg | 2.87 mg/kg | 3 mg/kg | No | 0.65 | 15.3±0.7 cm/s x 10^6 | 7.4±1.1 cm/s x 10^6 |  |  |  |  |  |  |  |  |  |  |  |  |
| O=C1CCCc2c1ccn2CCCN1CCN(c2cccc(C(F)(F)F)c2)CC1 [NEO-356, 1-{3-[4-(3-Trifluoromethylphenyl)piperazin-1-yl]propyl}-1,5,6,7-tetrahydroindol-4-one] |  |  | 2.31 mg/kg |  |  | 0.41 | 21.5±2.9 cm/s x 10^6 | 8.8±0.3 cm/s x 10^6 | No effect | No reversal | No | High |  |  |  |  |  |  |  |  |
| O=C1CCCc2c1ccn2CCN1CCN(c2cccc(C(F)(F)F)c2)CC1 [NEO-359, 1-{2-[4-(3-Trifluoromethylphenyl)piperazine-1-yl]ethyl}-1,5,6,7-tetrahydroindol-4-one] |  |  | 3.58 mg/kg | 0.79 mg/kg |  | 0.32 | 24.0±3.9 cm/s x 10^6 | 7.6±0.5 cm/s x 10^6 |  | No reversal | No | High | 100 mg/kg | No effect on escape or avoidance | Significant decrease in latency |  |  |  |  |  |
| O=C1CCCc2c1ccn2CCCN1CCN(c2cccc(Cl)c2)CC1 [NEO-363, 1-{3-[4-(3-Chlorophenyl)piperazine-1-yl]propyl}-1,5,6,7-tetrahydroindol-4-one] |  |  | 2.3 mg/kg | 2.3 mg/kg |  | 0.75 | 18.0±0.7 cm/s x 10^6 | 13.1±1.1 cm/s x 10^6 | No effect |  | No | High |  |  |  | 3.1 mg/kg |  |  |  |  |
| COc1ccccc1N1CCN(CCCn2ccc3c2CCCC3=O)CC1 [NEO-370, 1-{3-[4-(2-Methoxyphenyl)piperazine-1-yl]propyl}-1,5,6,7-tetrahydroindol-4-one] |  |  | 0.79 mg/kg | 0.79 mg/kg |  | 0.67 | 32.1±8.1 cm/s x 10^6 | 20.0±3.4 cm/s x 10^6 |  |  | No | High | 3.25 mg/kg |  | Significant increase in latency | 0.96 mg/kg | 6.2 mg/kg | Significant reduction in avoidance | 0.96 mg/kg |  |
| O=C1CCCc2c1ccn2CCN1CCN(c2cccc(Cl)c2)CC1 [NEO-376, 1-{2-[4-(3-Chloro-phenyl)-piperazin-1-yl]-ethyl}-1,5,6,7-tetrahydro-indol-4-one] |  |  | 0.79 mg/kg | 0.79 mg/kg |  | 0.43 | 20.4±1.8 cm/s x 10^6 | 9.4±0.3 cm/s x 10^6 |  |  | No | High | 17.5 mg/kg | No effect on escape or avoidance | significant increase in latency | 0.79 mg/kg |  |  |  |  |
| COc1ccccc1N1CCN(CCn2ccc3c2CCCC3=O)CC1 [NEO-377, 1-{2-[4-(2-Methoxyphenyl)-piperazin-1-yl]-ethyl}-1,5,6,7-tetrahydro-indol-4-one] |  |  | 2.31 mg/kg | 1.12 mg/kg |  | 0.60 | 26.0±1.8 cm/s x 10^6 | 15.5±2.9 cm/s x 10^6 |  |  | No | High | 3 mg/kg |  | Significant increase in latency | 2.3 mg/kg | 7.57 mg/kg | Significant reduction in avoidance |  |  |
| O=C1CCCc2c1ccn2CCCN1CCN(c2ncccn2)CC1 [NEO-381, 1-{3-[4-(2-Pyrimidyl)piperazine-1-yl]propyl}-1,5,6,7-tetrahydroindol-4-one] |  |  | 0.79 mg/kg | 3.58 mg/kg |  | 0.77 | 32.9±9.6 cm/s x 10^6 | 25.3±0.7 cm/s x 10^6 | No effect | No reversal | No | High |  |  |  |  |  |  |  |  |
| O=C1CCCc2c1ccn2CCCCN1CCN(c2cccc(C(F)(F)F)c2)CC1 [NEO-392, 1-{4-[4-(3-Trifluoromethylphenyl)piperazin-1-yl]-butyl}-1,5,6,7-tetrahydroindol-4-one] |  |  | 0.23 mg/kg | 0.23 mg/kg |  | 0.58 | 27.1±1.1 cm/s x 10^6 | 15.7±1.3 cm/s x 10^6 |  |  | No | High | 3.25 mg/kg |  | Significant increase in latency | 1.12 mg/kg | 4.93 mg/kg | Significant reduction in avoidance |  |  |
| CC(C)NCC(O)COc1cccc2ccccc12 (stereo not drawn) [Propranolol, reference compound] |  |  |  |  |  |  |  |  |  |  | No | High |  |  |  |  |  |  |  | 17.3±2.3 cm/s x 10^6 |
| Cc1nc2n(c(=O)c1CCN1CCC(c3noc4cc(F)ccc34)CC1)CCCC2 [Risperidone, risperidone, reference compound] | 0.26 mg/kg | 0.19 mg/kg | 0.036 mg/kg | 0.036 mg/kg |  |  |  |  |  |  |  |  |  |  | Significant increase in latency |  |  | Significant reduction in avoidance |  |  |
